Results on 13 compounds are retold here after ChEMBL document CHEMBL1153297, “Discovery of non-peptidergic MrgX1 and MrgX2 receptor agonists and exploration of an initial SAR using solid-phase synthesis” (Bioorg Med Chem Lett, 2009).

Calls of active or inactive are those of the source. The calls are words filed in the database; no cut-off is given here. Bridge positions count the residues as written; N and C are the ends. Square brackets hold non-standard residues; d marks the D form. Peptide text beside a SMILES is read from it.

Data set [1] addresses T1, Mas-related G-protein coupled receptor member X1 (Homo sapiens, UniProt Q96LB2). Nature of the data set: Agonist activity at human MrgX1 receptor. Format: functional.
Data set [2] addresses T1, Mas-related G-protein coupled receptor member X1. Briefly: Agonist activity at human MrgX1 receptor at 10 uM relative to BAM22. The class given is functional.
The target of data set [3] is T2, Mas-related G-protein coupled receptor member X2 (Homo sapiens, UniProt Q96LB1).
T2 sequence (Q96LB1 whole entry): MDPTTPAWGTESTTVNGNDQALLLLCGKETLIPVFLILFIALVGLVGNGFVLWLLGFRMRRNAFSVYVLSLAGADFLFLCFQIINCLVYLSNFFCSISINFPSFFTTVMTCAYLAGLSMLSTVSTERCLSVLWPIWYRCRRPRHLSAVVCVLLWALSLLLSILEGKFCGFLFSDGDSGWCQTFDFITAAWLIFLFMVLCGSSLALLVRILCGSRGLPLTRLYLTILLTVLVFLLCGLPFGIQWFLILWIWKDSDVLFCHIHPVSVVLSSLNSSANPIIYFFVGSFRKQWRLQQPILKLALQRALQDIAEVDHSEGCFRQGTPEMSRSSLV
Briefly: Agonist activity at human MrgX2 receptor. The class given is functional.

Data set [4] concerns the target T3, Mas-related G-protein coupled receptor member X2 (Homo sapiens) (UniProt Q96LB1).
T3 sequence (whole entry): T2 sequence (Q96LB1 whole entry)
Nature of the data set: Agonist activity at human MrgX2 receptor at 10 uM relative to cortistatin-14. Format: functional.

Data set [5] is described as follows: Agonist activity at monkey MrgX1 receptor. Format: functional, Macaca mulatta.
For data set [6], the species on record is Macaca mulatta. Briefly: Agonist activity at monkey MrgX1 receptor at 10 uM relative to BAM22. The class given is functional.
A short description of data set [7]: Agonist activity at monkey MrgX2 receptor. The class given is functional, Macaca mulatta.
Data set [8] is filed under the species Macaca mulatta. Nature of the data set: Agonist activity at monkey MrgX2 receptor at 10 uM relative to cortistatin-14. Format: functional.
The target of data set [9] is T1, Mas-related G-protein coupled receptor member X1. Nature of the data set: Agonist activity at MrgX1 receptor by calcium mobilization assay. Format: functional.
Data set [10] can be described thus: Metabolic stability in human liver microsome assessed as intrinsic clearance. The class given is ADME. The following applies: liver microsomes. (In general: Microsomes from liver hold many membrane-bound enzymes, among them those of drug oxidation.)

T1 sequence (Q96LB2 whole entry): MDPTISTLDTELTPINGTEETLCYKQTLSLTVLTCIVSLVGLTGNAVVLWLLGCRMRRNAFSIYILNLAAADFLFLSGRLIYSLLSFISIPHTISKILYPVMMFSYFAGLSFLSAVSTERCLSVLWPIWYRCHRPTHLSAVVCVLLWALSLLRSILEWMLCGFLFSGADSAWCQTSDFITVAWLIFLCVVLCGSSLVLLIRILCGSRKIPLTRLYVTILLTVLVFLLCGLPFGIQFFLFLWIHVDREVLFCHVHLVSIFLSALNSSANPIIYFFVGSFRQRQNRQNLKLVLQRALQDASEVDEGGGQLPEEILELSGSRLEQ

The EC50 is the concentration giving half of the maximal effect. The term pEC50 denotes the negative decadic logarithm of the EC50, by convention in mol/L. Regarding `CCC(C)[C@H]1C(=O)Nc2ccc(NCCCN(C)C)cc2-c2nc3cc(C(=O)NCc4cccc(C(F)(F)F)c4)ccc3n21` (stereo partly specified), the EC50 in data set [1] is 63.1 nM; in [3], 631 nM. For the same compound, the Efficacy in data set [2] was 147%; in data set [4] it was 103%; in the data set listed under Macaca mulatta [6], 157%; in the data set listed under Macaca mulatta [8], 85%. The pEC50 in data set [5] stood at 6.1; in data set [7], 5.4.
In data set [1], `CC(C)[C@H]1C(=O)Nc2ccc(NCCCN(C)C)cc2-c2nc3cc(C(=O)N4CCN(c5ccc(F)cc5)CC4)ccc3n21` gave an EC50 of 631 nM. The Efficacy is 108% in data set [2], 60% in data set [4] and 102% in the data set filed under Macaca mulatta [6]. The pEC50 in data set [5] is given as 5.8. The Efficacy entry in the data set listed under Macaca mulatta [8] was “inactive”.
On to `CC(=O)NC1CCN(c2ccc3c(c2)-c2nc4cc(C(=O)N5CCN(c6ccc(F)cc6)CC5)ccc4n2[C@@H](C(C)C)C(=O)N3)C1` (stereo partly specified), for which a half-maximal effect in data set [1] (EC50) was put at 2510 nM. For the same compound, the Efficacy in data set [2] stood at 98%; in the data set listed under Macaca mulatta [6], 89%. Besides, the Efficacy result (in data set [4]; in the data set filed under Macaca mulatta [8]) was “inactive” each time. In addition, in [5], the pEC50 was 5.6.
On to `CCC(C)[C@H]1C(=O)Nc2ccc(N3CCC(NC(C)=O)C3)cc2-c2nc3cc(C(=O)NCc4cccc(C(F)(F)F)c4)ccc3n21` (stereo partly specified), for which the EC50 in [1] was 316 nM; in data set [3] it was 1260 nM. In addition, the Efficacy in data set [2] worked out at 129%; in [4], 41%; in the data set filed under Macaca mulatta [6] it was 124%; in the data set listed under Macaca mulatta [8], 27%. Further, the pEC50 in data set [5] is given as 6.4; in data set [7], 5.7.
In turn, `C[C@@H](O)[C@@H]1NC(=O)[C@H](CCCCN)NC(=O)[C@H](Cc2c[nH]c3ccccc23)NC(=O)[C@H](Cc2ccccc2)NC(=O)[C@H](Cc2ccccc2)NC(=O)[C@H](CC(N)=O)NC(=O)[C@H](CCCCN)NC(=O)[C@@H](NC(=O)[C@@H]2CCCN2)CSSC[C@@H](C(=O)N[C@@H](CCCCN)C(=O)O)NC(=O)[C@H](CO)NC(=O)[C@H](CO)NC(=O)[C@H](Cc2ccccc2)NC1=O` [CORTISTATIN-14] (H-PCKNFFWKTFSSCK-OH; disulfide 2-13) showed an EC50 in data set [3] of 501 nM.
As to `CCC(C)[C@H]1C(=O)Nc2ccc(NCCOCCOCCN)cc2-c2nc3cc(C(=O)NCc4cccc(C(F)(F)F)c4)ccc3n21` (stereo partly specified), the EC50 in data set [1] was 316 nM. Moreover, the Efficacy came to 135% in data set [2] and 126% in the data set listed under Macaca mulatta [6]. Besides, the Efficacy result (in data set [4]; in the data set filed under Macaca mulatta [8]) was “inactive” throughout. In data set [5], this compound registered a pEC50 of 6.1.
Take `CCC(C)[C@H]1C(=O)Nc2ccc(NCCN3CCCCC3)cc2-c2nc3cc(C(=O)NCc4cccc(C(F)(F)F)c4)ccc3n21` (stereo partly specified): the EC50 in data set [1] is 200 nM; in data set [3], 2000 nM. In addition, the Efficacy in data set [2] came to 133%; in [4], 28%; in the data set listed under Macaca mulatta [6], 127%. This compound also gave a pEC50 in data set [5] of 6.1. The Efficacy entry in the data set listed under Macaca mulatta [8] was “inactive”.
Take `CSCC[C@H](NC(=O)[C@H](Cc1ccccc1)NC(=O)CNC(=O)CNC(=O)[C@@H](N)Cc1ccc(O)cc1)C(=O)N[C@@H](CCCNC(=N)N)C(=O)N[C@@H](CCCNC(=N)N)C(=O)N[C@H](C(=O)NCC(=O)N[C@@H](CCCNC(=N)N)C(=O)N1CCC[C@H]1C(=O)N[C@@H](CCC(=O)O)C(=O)N[C@@H](Cc1c[nH]c2ccccc12)C(=O)N[C@@H](Cc1c[nH]c2ccccc12)C(=O)N[C@@H](CCSC)C(=O)N[C@@H](CC(=O)O)C(=O)N[C@@H](Cc1ccc(O)cc1)C(=O)N[C@@H](CCC(N)=O)C(=O)N[C@@H](CCCCN)C(=O)N[C@@H](CCCNC(=N)N)C(=O)N[C@@H](Cc1ccc(O)cc1)C(=O)NCC(=O)O)C(C)C`: the EC50 in data set [1] was 794 nM. The Efficacy in data set [2] came out at 100%; in the data set filed under Macaca mulatta [6] it was 50%. In addition, the Efficacy result (in [4]; in the data set filed under Macaca mulatta [8]) was “inactive” in each case. Besides, the pEC50 in [5] is given as 4.5.
Consider `C[C@@H](O)[C@@H]1NC(=O)[C@@H](CCCCN)NC(=O)[C@H](Cc2c[nH]c3ccccc23)NC(=O)[C@H](Cc2ccccc2)NC(=O)[C@H](Cc2ccccc2)NC(=O)[C@H](CC(N)=O)NC(=O)[C@H](CCCCN)NC(=O)[C@@H](NC(=O)[C@@H]2CCCN2)CSSC[C@@H](C(=O)N[C@@H](CCCCN)C(=O)O)NC(=O)[C@H](CO)NC(=O)[C@H](CO)NC(=O)[C@@H](Cc2ccccc2)NC1=O` [CORTISTATIN-14] (H-PCKNFFW[dK]T[dF]SSCK-OH; disulfide 2-13), for which the Efficacy entry (in data set [2]; in the data set listed under Macaca mulatta [6]) was “inactive” throughout. Besides, the figures for the Efficacy (in data set [4]; in the data set listed under Macaca mulatta [8]) were 100% and 86%, respectively. Moreover, in data set [7], the pEC50 was 6.1.
For `CC(C)[C@H]1C(=O)Nc2ccc(NC3CCCCCC3)cc2-c2nc3cc(C(=O)N4CCCN(C)CC4)ccc3n21`, the Efficacy result (in data set [2]; in the data set filed under Macaca mulatta [6]) was “inactive” throughout. A half-maximal response in [3] (EC50) required 316 nM. Also, the Efficacy in [4] was determined as 110%; in the data set listed under Macaca mulatta [8] it was 50%. For the same compound, the pEC50 in [7] turned out to be 6.4.
With `CC(C)[C@H]1C(=O)Nc2ccc(NCc3ccccc3)cc2-c2nc3cc(C(=O)N(C)C4CCN(C)CC4)ccc3n21`, the Efficacy result in data set [2] is “inactive”. The same compound gave an EC50 in [3] of 158 nM. Further, the Efficacy in data set [4] turned out to be 87%.
The microsomal CLint is a measure of how fast metabolising enzymes remove a compound, apart from limits set by blood flow. In the case of `CC(C)[C@H]1C(=O)Nc2ccc(N3CCN(Cc4ccccc4)CC3)cc2-c2nc3cc(C(=O)N(C)C4CCN(C)CC4)ccc3n21`, the Efficacy entry (in data set [2]; in the data set filed under Macaca mulatta [6]) was “inactive” each time. Further, in data set [3], the EC50 is 398 nM. The Efficacy in data set [4] stood at 216%; in the data set listed under Macaca mulatta [8], 133%. The same compound yielded a pEC50 in data set [7] of 6.7. Besides, the result in data set [9] was Active. Moreover, the microsomal CLint in [10] is 5 µL/min/mg.
`CC(C)[C@H]1C(=O)Nc2ccc(NCCN3CCCCC3)cc2-c2nc3cc(C(=O)N4CCN(c5ccc(F)cc5)CC4)ccc3n21` gave an EC50 in data set [1] of 1260 nM. In addition, the Efficacy in [2] was 94%; in the data set filed under Macaca mulatta [6], 57%. In addition, the Efficacy entry (in data set [4]; in the data set listed under Macaca mulatta [8]) was “inactive” in each case. In data set [5], the pEC50 worked out at 6.
